Columns and labels:
[1] = target: T1, Interstitial collagenase (Homo sapiens) (UniProt P03956); experiment: Inhibitory activity against human Matrix metalloprotease-1
T1 sequence (whole entry): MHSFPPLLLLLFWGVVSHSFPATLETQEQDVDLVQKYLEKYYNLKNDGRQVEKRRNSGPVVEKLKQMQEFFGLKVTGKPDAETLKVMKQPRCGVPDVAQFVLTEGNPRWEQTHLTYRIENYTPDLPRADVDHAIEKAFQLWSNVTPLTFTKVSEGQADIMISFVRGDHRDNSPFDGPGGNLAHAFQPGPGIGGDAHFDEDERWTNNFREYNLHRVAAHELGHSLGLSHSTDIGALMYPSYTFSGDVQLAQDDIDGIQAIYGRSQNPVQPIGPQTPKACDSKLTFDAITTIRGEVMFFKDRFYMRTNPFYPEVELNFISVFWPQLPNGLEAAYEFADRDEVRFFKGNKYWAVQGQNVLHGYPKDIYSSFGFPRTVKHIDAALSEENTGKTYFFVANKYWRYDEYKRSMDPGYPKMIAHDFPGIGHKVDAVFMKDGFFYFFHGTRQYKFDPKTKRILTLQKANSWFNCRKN

[2] = target: 72 kDa type IV collagenase (Homo sapiens) (UniProt P08253); experiment: Inhibitory concentration against Matrix metalloprotease-2
[3] = Cmax after oral administration at 20 mpk in rats; type: ADME, organism-based; design: dose 20 mpk, route oral; conditions: rat, in vivo, 20 mg/kg
[4] = Half life period after intravenous administration at 20 mpk in rats; type: ADME, organism-based; conditions: rat, in vivo, 20 mg/kg
[5] = Oral bioavailability in rat; type: ADME, organism-based; conditions: in vivo, read-out: BA

Chain of 72 kDa type IV collagenase (Homo sapiens) (P08253 110-660 limits assumed): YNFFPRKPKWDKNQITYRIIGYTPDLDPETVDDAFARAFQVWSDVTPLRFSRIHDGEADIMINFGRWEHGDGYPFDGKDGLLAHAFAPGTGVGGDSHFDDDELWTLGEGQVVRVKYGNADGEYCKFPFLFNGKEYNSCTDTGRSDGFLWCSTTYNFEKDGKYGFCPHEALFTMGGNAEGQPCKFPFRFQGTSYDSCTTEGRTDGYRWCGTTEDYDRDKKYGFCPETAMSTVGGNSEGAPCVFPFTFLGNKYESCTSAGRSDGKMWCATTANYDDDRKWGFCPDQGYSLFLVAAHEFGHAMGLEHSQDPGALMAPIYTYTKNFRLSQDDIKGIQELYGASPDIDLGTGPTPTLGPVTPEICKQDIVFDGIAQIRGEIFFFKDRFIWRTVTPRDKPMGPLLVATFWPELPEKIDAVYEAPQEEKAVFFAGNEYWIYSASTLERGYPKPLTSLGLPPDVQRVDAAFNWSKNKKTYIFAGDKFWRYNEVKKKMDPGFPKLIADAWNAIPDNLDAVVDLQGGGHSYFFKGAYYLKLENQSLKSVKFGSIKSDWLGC

Row | Compound | Activity [1] [µM] | Activity [2] [nM] | Cmax [3] [ng/mL] | half-life [4] [h] | bioavailability [5] [%]
1 | O=C(NO)c1c(OC2CCOCC2)cccc1S(=O)(=O)N1CCC(Oc2ccc(C(F)(F)F)cc2)CC1 | > 10 | 1.1 |  |  | 
2 | COc1ccc(S(=O)(=O)N2CCC(Oc3ccc(C(F)(F)F)cc3)CC2)c(C(=O)NO)c1OC | > 10 | 2.4 | 22500 | 1.9 | 32
3 | COc1ccc(S(=O)(=O)N2CCC(Oc3ccccc3)CC2)c(C(=O)NO)c1OC | > 10 | 1.1 |  |  | 
4 | COc1ccc(S(=O)(=O)N2CCC(OCc3ccc4c(c3)OCO4)CC2)c(C(=O)NO)c1OC | > 10 | 1 | 9200 |  | 
5 | CNC(=O)[C@@H](NC(=O)C(CC(C)C)C(O)C(=O)NO)C(C)(C)C (single isomer, unassigned) |  |  | 2400 | 0.9 | 9
6 | COCCOc1cccc(S(=O)(=O)N2CCC(Oc3ccc(C(F)(F)F)cc3)CC2)c1C(=O)NO | > 10 | 1 | 2670 |  | 
7 | COc1ccccc1OC1CCN(S(=O)(=O)c2ccc(OC)c(OC)c2C(=O)NO)CC1 | > 10 | 330 |  |  | 
8 | COc1ccc(S(=O)(=O)N2CCC(Oc3ccc(OC(F)(F)F)cc3)CC2)c(C(=O)NO)c1OC | > 10 | 0.8 | 5160 | 1.5 | 31
9 | O=C(NO)c1c(S(=O)(=O)N2CCC(Oc3ccc(C(F)(F)F)cc3)CC2)ccc2c1OCO2 | > 10 | 3 | 3060 |  | 
10 | CC1(C)SCCN(S(=O)(=O)c2ccc(Oc3ccncc3)cc2)[C@H]1C(=O)NO [PRINOMASTAT] |  |  | 2060 | 1.6 | 28
11 | COc1ccc(OC2CCN(S(=O)(=O)c3ccc(OC)c(OC)c3C(=O)NO)CC2)cc1 | > 10 | 1.8 |  |  | 
12 | O=C(NO)c1ccccc1S(=O)(=O)N1CCC(Oc2ccc(OC(F)(F)F)cc2)CC1 | > 10 | 2.2 | 670 |  | 39
13 | COc1cccc(OC2CCN(S(=O)(=O)c3ccc(OC)c(OC)c3C(=O)NO)CC2)c1 | > 10 | 12 |  |  | 
14 | O=C(NO)C1(CS(=O)(=O)c2ccc(Oc3ccc(Cl)cc3)cc2)CCOCC1 [CTS-1027] | 0.8 | 0.4 | 1370 | 1.5 | 22
15 | COc1ccc(OC)c(S(=O)(=O)N2CCC(Oc3ccc(C(F)(F)F)cc3)CC2)c1C(=O)NO | > 10 | 21 |  |  | 
16 | O=C(NO)c1c(F)cccc1S(=O)(=O)N1CCC(Oc2ccc(C(F)(F)F)cc2)CC1 | > 10 | 3.3 |  |  | 
17 | O=C(NO)c1c(S(=O)(=O)N2CCC(Oc3ccc(C(F)(F)F)cc3)CC2)ccc2c1OCCO2 | > 10 | 1.4 | 3200 |  | 
18 | O=C(NO)c1c(S(=O)(=O)N2CCC(OCc3ccc4c(c3)OCO4)CC2)ccc2c1OCO2 | > 10 | 1.1 |  |  | 
19 | COc1ccc(S(=O)(=O)N2CCC(Oc3ccc(Cl)cc3)CC2)c(C(=O)NO)c1OC | > 10 | 0.3 |  |  | 
20 | O=C(NO)c1c(Cl)cccc1S(=O)(=O)N1CCC(Oc2ccc(C(F)(F)F)cc2)CC1 | > 10 | 1.9 | 1310 |  | 
21 | O=C(NO)c1ccccc1S(=O)(=O)N1CCC(Oc2ccc(C(F)(F)F)cc2)CC1 | > 10 |  | 1230 | 0.8 | 23
